Laboratory results taken from US12070457B2, “Substituted pyridines, pyridazines, pyrimidines, and 1,2,3-triazines as bruton's tyrosine kinase inhibitors” (HUTCHISON MEDIPHARMA LIMITED, priority 2020, dated 2024).

Columns and labels:
BTK recombinant protein = BTK recombinant protein (Homo sapiens (Human), UniProt Q06187); assay: Determination of biochemical BTK (Z'-LYTE kinase assay)
Text: Example 2 Determination of Biochemical BTK
(§1) 1. Reagents and Materials
• BTK recombinant protein: Invitrogen, Cat #PV3363; • Z′-LYTE® kinase test kit-tyrosine 1 peptide: Invitrogen, Cat #PV3190; • 384-well low-flange black flat-bottomed polystyrene NBS microplate, no lid, no sterilization: Corning, Cat #3575; • 96-well polystyrene conical-bottomed MicroWell™ plate, sealed with a lid: Thermo Scientific™ Nunc™, Cat #277143; • Envision multi-mode plate reader: PerkinElmer; • Mixmate® shaker: Eppendorf; • TS-2102 shaking incubator: TENSUC; 2. Methods
Z′-LYTE® biochemical assay employs a fluorescence resonance energy transfer (FRET)-based, coupled-enzyme format and is based on the differential sensitivity of phosphorylated and non-phosphorylated peptides to proteolytic cleavage. Both ends of the short peptide substrate are labeled with two fluorescent groups to form a FRET paired combination. In the primary reaction (the Kinase Reaction), the kinase transfers the γ-phosphate of ATP to a single […] residue on the short peptide substrate. In the secondary reaction (the development reaction), the non-phosphorylated short peptides were recognized and cleaved by a site-specific protease (the development reagent). Phosphorylated short peptides can resist such cleavage. Cleavage of short peptides can disrupt the donor (such as coumarin) and receptor fluorophores (fluorescein) on the short peptides, while the phosphorylated short peptides can maintain FRET. The calculation method of the ratio is as follows, and the ratio of the respective emission signals generated by the donor fluorophores emitted (after excitation at 400 nm) to the receptors is calculated. Emission signal ratio=emitted light by coumarin (445 nm)/emitted light by fluorescein (520 nm). If the FRET short peptide is phosphorylated (such as no kinase inhibitor), the emitted light ratio will remain in a lower level. If the FRET short peptide is non-phosphorylated (such as kinase inhibitor), the emitted light ratio will be in a higher level. In this way, the inhibitory effects of different compound inhibitors on BTK kinase activity would be distinguished.
The experiment were carried out according to the instructions of the Z′-LYTE® kinase test kit-tyrosine 1 peptide. Reagent preparation: 1.33× kinase buffer: 5× kinase buffer was diluted with water to 1.33× kinase buffer; an enzyme solution: the kinase was dissolved in 1.33× kinase buffer with the final working concentration being 3.32 nM; a short peptide solution: a short peptide stock solution (1 mM dissolved in DMSO) was dissolved in 1.33× kinase buffer with the final working concentration being 2 μM; Z′-LYTE Tyr01 phosphorylated short peptide solution, 0.6 μl of stock solution (1 mM dissolved in DMSO) was dissolved in 149.4 μl of 1.33× kinase buffer; an ATP solution: an ATP stock solution (10 mM aqueous solution) was dissolved in 1.33× kinase buffer with the final working concentration being 32 μM; a color-developing solution: color-developing solution B was dissolved in color-developing buffer with the final working concentration being 1× color-developing solution; 4× compound preparation: the compound was diluted in 3-fold gradient concentration to finally obtain 4% DMSO aqueous solution containing different concentrations of the compound, with the final working concentration being 3000, 1000, 333.33, 111.11, 37.04, 12.35, 4.12, 1.37 nM, 8 concentration points in total.
Specific steps of the experiment: In the experiment, there were three control groups, each with 8 replicate wells, which were C1 100% inhibition group (no ATP), C2 0% inhibition group (with ATP), and C3 100% phosphorylation group, respectively. 2.5 μl of serially diluted compound was added to each well of a 384-well plate, with double replicate wells, and 4% DMSO solution was added to wells C1, C2, and C3. […]

[1] = target: phosphorylated BTK in Ramos cells (Homo sapiens (Human), UniProt Q06187); assay: Determination of phosphorylated BTK in Ramos cells (BTK phospho-Y223 HTRF); type: cell-based
Sequence of phosphorylated BTK in Ramos cells (Q06187 whole entry): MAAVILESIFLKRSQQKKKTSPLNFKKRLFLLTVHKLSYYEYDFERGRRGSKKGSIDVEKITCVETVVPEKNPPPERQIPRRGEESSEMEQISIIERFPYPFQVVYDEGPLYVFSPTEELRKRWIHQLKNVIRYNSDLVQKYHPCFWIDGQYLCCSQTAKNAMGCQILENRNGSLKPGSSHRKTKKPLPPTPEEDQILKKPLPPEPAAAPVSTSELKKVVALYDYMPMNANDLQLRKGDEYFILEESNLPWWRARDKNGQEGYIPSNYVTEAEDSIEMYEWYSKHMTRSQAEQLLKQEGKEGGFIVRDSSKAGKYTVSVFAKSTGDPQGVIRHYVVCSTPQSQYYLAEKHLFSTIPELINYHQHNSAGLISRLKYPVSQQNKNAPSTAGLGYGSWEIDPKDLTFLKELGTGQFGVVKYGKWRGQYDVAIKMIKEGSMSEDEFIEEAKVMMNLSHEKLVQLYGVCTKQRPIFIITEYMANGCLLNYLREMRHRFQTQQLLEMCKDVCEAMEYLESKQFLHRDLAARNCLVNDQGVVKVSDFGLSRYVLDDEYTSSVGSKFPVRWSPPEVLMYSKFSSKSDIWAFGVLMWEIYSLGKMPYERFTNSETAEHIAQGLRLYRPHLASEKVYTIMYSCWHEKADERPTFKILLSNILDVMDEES
Protocol: Determination of Phosphorylated BTK in Ramos Cells
as §1
• Ramos cells: Ramos cells were purchased from American Standard Biological Collection Center ATCC Cell Bank, PRMI 1640 medium containing L-glutamine, 1.5 g/L of sodium bicarbonate, 2.383 g/L of HEPES solution, 0.11 g/L of sodium pyruvate and 4.5 g/L of glucose was used, added 10% fetal bovine serum FBS, and placed in a 5% C02, 37° C. cell incubator for normal culture; • PRMI 1640 medium: GIBCO, Cat #A10491-01; • Fetal bovine serum (FBS): GIBCO, Cat #100100-147; • Hank's balanced salt solution (HBSS): GIBCO, Cat #14025-092; • Immunoglobulin M (IgM): Jackson Immuno, Cat #109-006-129; • 3% hydrogen peroxide (3% H2O2): Sigma, Cat #88597-100 ML-F; • Phosphorylated BTK HTRF detection kit (BTK phospho-Y223 HTRF kit): Cisbio, Cat #63ADK017PEH; • Microwell plate reader: Envision, Perkin Elmer; • 384-well plate CulturPlate™384: Perkin Elmer, Cat #6007680 • 96-well plate: Corning, Cat #3799. 2. Methods
Ramos cells were starved in PRMI 1640 medium with 1% FBS for 2 hours. The starved Ramos cells were diluted with Hank's balanced salt solution to 5.0×10^6 cells/ml, seeded in a 96-well plate with 20 μL/well (1.0×10^5 cells/well), and cultured in a 5% CO2, 37° C. cell incubator. […]
The 384 well plate incubated overnight in the constant temperature incubator was taken out to detect the luminescence signal using the Envision microwell plate reader at the […]. The reading value at 665 nm/615 nm of each well multiplied by 104 was used as the signal value of each well.
The average signal value of the wells supplemented with the mixed solution of human immunoglobulin M (final concentration was 10 μg/mL) and hydrogen peroxide (final concentration was 3.3 mM) without the test compound was regarded as the high value, and the average signal value of the wells without immunoglobulin M stimulation and without the test compound was regarded as the low value. According to the signal value in each well, the inhibition ratio (%) of each concentration of compounds was calculated, and the 205 model in XL-Fit 5.3 software (ID Business Solutions Limited) was used to obtain an IC50 value. […]

[2] = Stability test in liver microsomes (rat); type: in vitro ADME; details: 1 μM compound; for stability in rat liver microsomes compared with reference GDC-0853: 0.5 mg/mL liver microsomes, 30 minutes incubation; for RLM, percentage of remaining compound after 30 minutes of incubation: rat liver microsomes
Text: (§2) Example 5 Stability Test in Liver Microsomes
(§3) Both male CD-1 mouse pooled liver microsomes and male SD rat pooled liver microsomes were purchased from BioreclamationIVT Corporation, USA.
(§4) Phenacetin, glucose-6-phosphate dehydrogenase (G-6-PDH) and nicotinamide adenine dinucleotide phosphate (NADP) were all purchased from Sigma-Aldrich Corporation, USA. Glucose-6-phosphate (G-6-P) was purchased from Shanghai Eybridge Chemical Technology Co., Ltd.
(§5) Ten mM test compound stock solution: a certain amount of test compound was weighed, and dissolved with an appropriate volume of DMSO to prepare a stock solution with a concentration of 10 mM for use.
(§6) Reaction stopping solution: an appropriate amount of internal standard compound phenacetin was dissolved in acetonitrile to prepare a reaction stopping solution with a concentration of 1000 ng/mL for use at room temperature.
(§7) The test compound stock solution was diluted with an organic solvent (usually a mixture of acetonitrile, methanol and water with various ratios, depending on the solubility of the compound, if necessary, 1 N hydrochloric acid or 1 N sodium hydroxide would be added to facilitate solubilization) to the 0.1 mM (the final concentration of the compound in the reaction system was 1 μM) and the concentration percentage of the organic solvents in the incubation system no more than 1% (wherein the percentage of DMSO was required to be no more than 0.1%). An appropriate amount of 100 mM NADP, 500 mM G-6-P and 100 Unit/mL G-6-PDH were mixed and diluted with ultrapure water (the final system contains 1 mM NADP, 5 mM G-6-P and 1 Unit/mL G-6-PDH), pre-incubated in a 37° C. water bath for 10 minutes and then placed on ice for use as a NADPH regeneration solution. 20 mg/mL liver microsomes solution and 200 mM phosphate buffer was mixed, and diluted with ultrapure water to give a liver microsomes solution containing 2.5 mg/mL liver microsomes (the final concentration of the reaction system is 0.5 mg/mL) and 50 mM phosphate buffer. The diluted liver microsomes solution was mixed with 0.1 mM compound solution, a mixture of 100 mM EDTA, 300 mM MgCl2 solution, 200 mM phosphate buffer (the final system was 3 mM MgCl2, 1 mM EDTA and 50 mM phosphate buffer) and water in an appropriate volume was added. Finally, the NADPH regeneration solution was added, then the reaction solution was placed in a 37° C. water bath to start the reaction (the reaction time was 30 minutes), and the reaction was stopped by adding the ice-cold acetonitrile reaction stopping solution containing the internal standard. The 0-minute sample was not incubated in a 37° C. water bath, and its difference from the 30-minute sample further lies in that the ice-cold acetonitrile reaction stopping solution containing the internal standard was added first, and then the NADPH regeneration solution was added. The sample added with the reaction stopping internal standard solution was vortexed and mixed well, and then centrifuged at 4400 rpm for 10 minutes. The supernatant was taken and diluted ten times with 50% methanol for LC-MS/MS analysis.
(§8) LC-MS/MS was used to determine the concentration of the compound in the sample. The percentage of the remaining compound after 30 minutes of incubation comparing with that in the 0-minute sample was calculated using the peak area ratio of the compound to the internal standard as an indicator, to evaluate the metabolic stability of the compound.
(§9) Instrument: API4500, API4000 or LTQ Mass Spectrometer; the liquid phase is UHPLC system (Shimadzu LC-30 AD, model Nexra X2) including liquid delivery unit, column thermostat, detector and autosampler; or Agilent 1200 Binary Pump series HPLC and CTC Autosampler.
(§10) Chromatographic column: Waters XSELECT Hss T3 C18 (2.5 μm, 2.1×50 mm) or […] (5 μm, 2.0×50 mm)
(§11) Mobile phase: • A: water with 0.1% FA (formic acid) (with or without 0.1% ACN (acetonitrile)) • B: acetonitrile with 0.1% FA (formic acid).

[3] = Stability test in liver microsomes (mouse); type: in vitro ADME; details: 1 μM compound; for stability in mouse liver microsomes compared with reference GDC-0853: 0.5 mg/mL liver microsomes, 30 minutes incubation; for MLM, percentage of remaining compound after 30 minutes of incubation: mouse liver microsomes
Text: as §2, §3, §4, §5, §6, §7, §8, §9, §10, §11

Sequence of BTK recombinant protein (Q06187 whole entry): as above

IC50 (BTK recombinant protein) | IC50 [1] | RLM, percentage of remaining compound after 30 minutes of incubation [2] | MLM, percentage of remaining compound after 30 minutes of incubation [3] | Compound | stability in rat liver microsomes compared with reference GDC-0853 [2] | stability in mouse liver microsomes compared with reference GDC-0853 [3]
8 nM | 5 nM | – | – | 2-(3′-(hydroxymethyl)-5-((5-(2-methoxyethyl)-4-methyl-4,5,6,7-tetrahydropyrazolo[1,5-α]pyrazin-2-yl)amido)-1-methyl-6-oxo-1,6-dihydro-[3,4′-bispyridin]-2′-yl)-7,7-dimethyl-7,8-dihydro-2H-cyclopenta[4,5]pyrrolo[1,2-d][1,2,4]triazin-1(6H)-one optically pure enantiomer [Compound 120] | – | –
18 nM | 38 nM | – | – | CC1c2cc(Nc3cc(-c4ccnc(-n5ccn6c7c(cc6c5=O)CCC7)c4CO)cn(C)c3=O)nn2CCN1C1COC1 (racemic) [Compound 144] | – | –
33 nM | 16 nM | – | – | COCCN1CCn2nc(Nc3cc(-c4ccnc(-n5ccn6c7c(cc6c5=O)CCC7)c4CO)cn(C)c3=O)cc2C1C (racemic) [Compound 145] | – | –
27 nM | – | – | – | C[C@H]1CN(C2COC2)CCN1c1ccc(Nc2nc(-c3ccnc(-n4ccn5c6c(cc5c4=O)CC(C)(C)C6)c3CO)cn(C)c2=O)nc1 [Compound 20] | – | –
10 nM | – | 95.6% | 83.4% | C[C@H]1CN(C2COC2)CCN1c1ccc(Nc2cc(-c3ccnc(-n4ccn5c6c(cc5c4=O)CC(C)(C)C6)c3CO)nn(C)c2=O)nc1 [Compound 22] | better than that of the reference GDC-0853 | better than that of the reference GDC-0853
3 nM | – | – | – | CCn1cc(Nc2cc(-c3ccnc(-n4ccn5c6c(cc5c4=O)CC(C)(C)C6)c3CO)cn(C)c2=O)nn1 [Compound 24] | – | –
8 nM | – | – | – | CCn1cc(Nc2cc(-c3ccnc(-n4ccn5c6c(cc5c4=O)CC(C)(C)C6)c3CO)nn(C)c2=O)nn1 [Compound 25] | – | –
5 nM | – | ~100% | 89.5% | Cn1cc(-c2ccnc(-n3ccn4c5c(cc4c3=O)CC(C)(C)C5)c2CO)cc(Nc2ccc(N3CCN(C4COC4)CC3=O)cn2)c1=O [Compound 34] | better than that of the reference GDC-0853 | better than that of the reference GDC-0853

Compound | IC50 (BTK recombinant protein) | IC50 [1] | RLM, percentage of remaining compound after 30 minutes of incubation [2] | MLM, percentage of remaining compound after 30 minutes of incubation [3] | stability in rat liver microsomes compared with reference GDC-0853 [2] | stability in mouse liver microsomes compared with reference GDC-0853 [3]
COCC(C)n1cc(Nc2nc(-c3ccnc(-n4ccn5c6c(cc5c4=O)CC(C)(C)C6)c3CO)cn(C)c2=O)nn1 (centres unmarked) [Compound 42] | 269 nM | – | – | – | – | –
